Like-named read-outs stand apart in the source and are kept apart here.
Experiments:
[1] = Phase 1 multiple ascending dose (MAD) pharmacokinetics with CSF collection in healthy volunteers; assay type: in vivo, human; settings: for accumulation RCmax: day 8 vs day 1; for Kp at 4 h / concentration at 4 h / Tmax / Vd/F / Cmax: male, human, oral; for Kp at 4 h: CSF and plasma; for Tmax: Median, read-out: Tmax; for Vd/F: read-out: Vz/F; for Cmax: plasma total, geometric mean, read-out: Cmax
Method: (§1) Study design: A phase 1, randomized, double blind, placebo-controlled, single-center clinical study in 33 male healthy volunteers (HV) (19-54 years, 63.2-95.7 Kg) was conducted with leriglitazone HCl and divided in two parts: a single ascending dose (SAD) with three dose levels (30, 90 and 270 mg) in fasted conditions, followed with two dose levels (90 and 270 mg) in fed conditions; a multiple ascending dose (MAD) with a double-blind, parallel-design with two dose levels (135 and 270 mg) for 8 days and a separate cohort of subjects in an open-label parallel design with two dose levels (135 and 270 mg) including cerebrospinal fluid (CSF) collection on day 8. In the fasted conditions a fasting period of at least 4 hours was required before obtaining plasma samples. The food effect (FE) was assessed by comparing fasted with fed conditions (dosing after a high-fat breakfast per FDA definition with a calculated caloric content of 918 kcal). In the MAD part (fed) the medication was taken before a normal breakfast. Leriglitazone HCl was supplied by ChemConnection and an oral suspension of leriglitazone (20% w/v kleptose, 2% ethanol in 100 mM phosphate buffer pH=7.8) at 6 mg/ml was used in the study.
(§2) Blood, Urine and CSF sampling: In the SAD, blood samples were drawn at the following time points: pre-dose and 0.25, 0.5, 0.75, 1, 1.5, 2, 2.5, 3, 4, 5, 6, 8, 10, 12, 16, 24, 36, 48, 72, 96 and 120 hours post-dose. Urine was collected at pre-dose (within 12 hours prior to dosing) and over 0-6, 6-12, 12-24, 24-36, 36-48 hours post-dose collection intervals. In the MAD, blood samples were collected on day 1 at pre-dose and 0.25, 0.5, 0.75, 1, 1.5, 2, 2.5, 3, 4, 5, 6, 8, 10, 12, and 16 hours post-dose and at pre-dose and at 4 hours post-dose on day 2 to day 7, and on day 8 at pre-dose and 0.25, 0.5, 0.75, 1, 1.5, 2, 2.5, 3, 4, 5, 6, 8, 10, 12, 16, 24, 36, 48, 72, 96 and 120 hours post-dose. CSF were taken on day −1 and on day 8, at 4 hours post-dose.
(§3) Pharmacokinetic parameter calculation: PK parameters (Cmax, Tmax, t1/2, AUC0-t, CL/F, Vz/F, AUC0-t, RAUC, RCmax) were estimated using non-compartmental analysis (NCA) (Phoenix WinNonlin® Version 6.3).
(§4) Statistical analysis: Descriptive statistics for all relevant PK parameters: n, mean, minimum, median, maximum, geometric mean, and coefficient of variation (CV %); analysis of variance on Cmax and AUC to determine dose proportionality and food effect (FE).
The ratio of unbound leriglitazone concentration in brain to unbound concentration in plasma (Kpu,u; Cb,u/Cp,u) was calculated dividing the unbound CSF Cmax by the unbound plasma Cmax. Fractions unbound in plasma (fu,p) to obtain the unbound Cmax values were already reported. Rodriguez-Pascau, L. et al., Sci. Transl. Med. 13, eabc0555 (2021).

[2] = Phase 1 single ascending dose (SAD) pharmacokinetics in healthy volunteers; assay type: in vivo, human; settings: for half-life / Tmax / Cmax / AUC(0-t) / AUC: male, human, plasma, oral; for Tmax: read-out: Tmax; for Cmax: plasma total, read-out: Cmax; for AUC(0-t) / AUC: geometric mean; for AUC: read-out: AUC
Method: as §1, §2, §3, §4

[3] = plasma, 135 mg, 135 mg MD Day 1, n = 8
[4] = plasma, 135 mg, 135 mg MD Day 8, n = 8
[5] = plasma, 270 mg, 270 mg MD Day 1, n = 8
[6] = plasma, 270 mg, 270 mg MD Day 8, n = 7

## CC(=O)c1ccc(CCOc2ccc(CC3SC(=O)NC3=O)cc2)nc1 (stereo not shown) [Compound M3, 5-[[4-[2-[5-acetylpyridin-2-yl]ethoxy]phenyl]methyl]-1,3-thiazolidine-2,4-dione]
[1]; 135 mg MD Day 1, n = 8, geometric mean (CV %)
  CL/F: 3.69 (29.4) L./h
[1]; 135 mg MD Day 8, n = 8, geometric mean (CV %)
  CL/F: 2.15 (27.6) L./h
[1]; 270 mg MD Day 1, n = 8, geometric mean (CV %)
  CL/F: 3.29 (26.4) L./h
[1]; 270 mg MD Day 8, 4 hours post-dose, total, geometric mean (CV %)
  Plasma C4h: :5673 (34.2) ng/mL
[1]; 270 mg MD Day 8, n = 7, geometric mean (CV %)
  CL/F: 2.13 (25.9) L./h
[1]; 270 mg vs 135 mg, day 8, 4 hours post-dose
  increase of CSF concentration on doubling the dose: 1.7 fold
[1]; MAD 135 mg
  accumulation RCmax: 1.57
[1]; MAD 270 mg dose
  accumulation RAUC: 1.63
[1]; MAD 270 mg
  accumulation RCmax: 1.69
[1]; judged from CSF to plasma concentrations
  brain penetration: limited
[1]; 135 mg MD Day 8, geometric mean (CV %), read-out: CSF/Plasma
  Kp at 4 h: 0.004
[1]; 270 mg MD Day 8, geometric mean (CV %), read-out: CSF/Plasma
  Kp at 4 h: 0.004
[1]; day 8, 4 hours post-dose, read-out: total concentrations in CSF as share of total plasma concentrations
  Kp at 4 h: 0.004
[1]; CSF, 135 mg MD Day 8, 4 hours post-dose, total, geometric mean (CV %), read-out: CSF C4h
  concentration at 4 h: 13 ng/mL
[1]; CSF, 270 mg MD Day 8, 4 hours post-dose, total, geometric mean (CV %), read-out: CSF C4h
  concentration at 4 h: 22 ng/mL
[1]; [3]
  Tmax: 3.5 h
  Cmax: 2470 ng/mL
[1]; plasma, 135 mg, 135 mg MD Day 1, n = 8, geometric mean (CV %)
  Vd/F: 111 L
[1]; [4]
  Tmax: 2.75 h
  Cmax: 4150 ng/mL
[1]; plasma, 135 mg, 135 mg MD Day 8, n = 8, geometric mean (CV %)
  Vd/F: 63.5 L
[1]; [5]
  Tmax: 3.5 h
  Cmax: 5360 ng/mL
[1]; plasma, 270 mg, 270 mg MD Day 1, n = 8, geometric mean (CV %)
  Vd/F: 103 L
[1]; [6]
  Tmax: 2.5 h
  Cmax: 8030 ng/mL
[1]; plasma, 270 mg, 270 mg MD Day 8, n = 7, geometric mean (CV %)
  Vd/F: 69.3 L
[1]; plasma, 135 mg MD Day 8, 4 hours post-dose, total, geometric mean (CV %), read-out: Plasma C4h
  concentration at 4 h: 3600 ng/mL
[2]; 48-hour collection period
  dose excreted in urine as free analyte: < 0.01%
  dose excreted in urine as the analyte, mostly in a conjugated state: 0.3%
[2]; 30 mg, M3 section, SAD 30 mg fasted, n = 6, geometric mean (CV %), read-out: t1/2 (converted)
  half-life: 22.1 h
[2]; 30 mg, SAD 30 mg fasted, n = 6, Median
  Tmax: 0.63 h
[2]; 30 mg, SAD 30 mg fasted, n = 6, geometric mean (CV %)
  Cmax: 828 ng/mL
[2]; 90 mg, M3 section, SAD 90 mg fasted, n = 6, geometric mean (CV %), read-out: t1/2 (converted)
  half-life: 23.2 h
[2]; 90 mg, M3 section, SAD 90 mg fed, n = 3, geometric mean (CV %), read-out: t1/2 (converted)
  half-life: 25.7 h
[2]; 90 mg, SAD 90 mg fasted, n = 6, Median
  Tmax: 0.63 h
[2]; 90 mg, SAD 90 mg fasted, n = 6
  AUC(0-t): 59400 ng·h/mL
  AUC: 61800 ng·h/mL
[2]; 90 mg, SAD 90 mg fasted, n = 6, geometric mean (CV %)
  Cmax: 2550 ng/mL
[2]; 90 mg, SAD 90 mg fed, n = 3, Median
  Tmax: 5 h
[2]; 90 mg, SAD 90 mg fed, n = 3
  AUC(0-t): 59900 ng·h/mL
  AUC: 62200 ng·h/mL
[2]; 90 mg, SAD 90 mg fed, n = 3, geometric mean (CV %)
  Cmax: 1980 ng/mL
[2]; 270 mg, M3 section, SAD 270 mg fasted, n = 5, geometric mean (CV %), read-out: t1/2 (converted)
  half-life: 21.6 h
[2]; 270 mg, M3 section, SAD 270 mg fed, n = 5, geometric mean (CV %), read-out: t1/2 (converted)
  half-life: 22.7 h
[2]; 270 mg, SAD 270 mg fasted, n = 5, Median
  Tmax: 1.5 h
[2]; 270 mg, SAD 270 mg fed, n = 5, Median
  Tmax: 4 h
[2]; 270 mg, SAD 270 mg fed, n = 5
  AUC(0-t): 155000 ng·h/mL
  AUC: 159000 ng·h/mL
[2]; 270 mg, SAD 270 mg fed, n = 5, geometric mean (CV %)
  Cmax: 5320 ng/mL
[2]; 270 mg, SAD fed conditions, 90 and 270 mg
  Tmax: 3 to 6 h
[2]; SAD, read-out: Half-lives
  half-life: 22 to 23 h

From patent US20260207570A1, “OPTIMIZED DOSING OF LERIGLITAZONE” (MINORYX THERAPEUTICS S.L., priority 2022, published 2026)
